From ChEMBL document CHEMBL1201862, “PubChem BioAssay data set” (2004)
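These data come from cells grown in 96-well plates and exposed to compound for 48 hours at five concentrations. At the GI50, growth is halved.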 Active and inactive are the calls of the source. No stated cut-off is given here; in the data, active = GI50 up to about 1.1 µM and inactive = higher.

Tests used:
Assay in all cases: inhibition of tumour cell growth, NCI panel, 48 h
IGROV-1 = system: IGROV-1
K562 = system: K562
OVCAR-4 = system: OVCAR-4
OVCAR-8 = system: OVCAR-8
RXF 393 = system: RXF 393
SK-MEL-28 = system: SK-MEL-28
SK-OV-3 = system: SK-OV-3
SN12C = system: SN12C
U-251 = system: U-251
Malme-3M = system: Malme-3M
NCI-H522 = system: NCI-H522
SF-268 = system: SF-268
SK-MEL-2 = system: SK-MEL-2
UO-31 = system: UO-31

Measured: GI50

C/C(=N\N=C(\N)S)c1ccc(Oc2ccccc2)cc1
inactive: IGROV-1 2.59 µM | K562 4.83 µM | OVCAR-4 3.7 µM | OVCAR-8 11.7 µM | RXF 393 10.3 µM | SK-MEL-28 11.7 µM | SK-OV-3 16.2 µM | SN12C 11.4 µM | U-251 15.4 µM

O=c1ncc(F)cn1C1OC(CO)C(O)C1O (configuration not stated)
inactive: IGROV-1 > 30.8 µM | K562 7.38 µM | Malme-3M > 29.8 µM | NCI-H522 > 32.7 µM | OVCAR-4 > 80.5 µM | OVCAR-8 > 27.7 µM | RXF 393 > 100 µM | SF-268 > 23.9 µM | SK-MEL-28 > 45.6 µM | SK-MEL-2 > 28.3 µM | SK-OV-3 > 42.6 µM | SN12C > 17.4 µM | U-251 > 14.9 µM | UO-31 > 100 µM

[O-][S+]1c2ccccc2N=C(c2ccc3ccccc3c2)CC1c1ccccc1 (configuration not stated)
inactive: IGROV-1 16.9 µM | K562 23.7 µM | NCI-H522 18.2 µM | OVCAR-4 20.2 µM | OVCAR-8 16.4 µM | SF-268 18.2 µM | SK-MEL-28 43 µM | SK-MEL-2 30.8 µM | SK-OV-3 36.2 µM | SN12C 34.4 µM | U-251 18.6 µM | UO-31 18.4 µM

Cc1ccc2nc(NC(=O)C(=O)CC(=O)c3cccc4ccccc34)sc2c1
inactive: IGROV-1 31.7 µM | K562 31.5 µM | Malme-3M 27 µM | OVCAR-4 16.2 µM | OVCAR-8 23.4 µM | SF-268 32.6 µM | SK-MEL-28 48.4 µM | SK-MEL-2 35.5 µM | SK-OV-3 19.2 µM | SN12C 52 µM | U-251 22 µM | UO-31 > 100 µM

O=C1CCC(=O)C12CCc1cccc(O)c12
inactive: IGROV-1 > 100 µM | K562 > 100 µM | Malme-3M > 100 µM | OVCAR-4 > 100 µM | OVCAR-8 > 100 µM | RXF 393 > 100 µM | SF-268 > 100 µM | SK-MEL-28 > 100 µM | SK-OV-3 > 100 µM | SN12C > 100 µM | U-251 > 100 µM | UO-31 > 100 µM

CCCOC(=O)C1CCC(=O)N1C(=O)C(C)Cl (configuration not stated)
inactive: IGROV-1 > 100 µM | K562 > 100 µM | Malme-3M > 100 µM | NCI-H522 > 100 µM | OVCAR-4 > 100 µM | OVCAR-8 > 100 µM | SF-268 > 100 µM | SK-MEL-28 > 100 µM | SK-MEL-2 > 100 µM | SK-OV-3 > 100 µM | SN12C > 100 µM | U-251 > 100 µM | UO-31 > 100 µM

O=C(O)CNCc1c2ccccc2[n+]([O-])c2ccccc12
inactive: IGROV-1 91.6 µM | K562 38.2 µM | Malme-3M > 100 µM | NCI-H522 46.1 µM | OVCAR-4 49.3 µM | OVCAR-8 80.5 µM | SF-268 43.8 µM | SK-MEL-28 75.7 µM | SK-MEL-2 > 100 µM | SK-OV-3 > 100 µM | SN12C 73.6 µM | U-251 > 100 µM | UO-31 21.1 µM

CC1CN1P1(N2CC2C)=NP(N2CC2C)(N2CC2C)=NP(N2CC2C)(N2CC2C)=N1 (configuration not stated)
inactive: IGROV-1 > 50 µM | K562 > 50 µM | Malme-3M > 50 µM | NCI-H522 > 50 µM | OVCAR-4 > 50 µM | OVCAR-8 > 50 µM | RXF 393 > 50 µM | SF-268 > 50 µM | SK-MEL-28 > 50 µM | SK-OV-3 > 50 µM | SN12C > 50 µM | U-251 > 50 µM | UO-31 > 50 µM

COc1ccc(OC)c(NC(=O)C2=C(C)NC(C)=C(C(=O)Nc3cc(OC)ccc3OC)C2c2ccco2)c1
inactive: IGROV-1 > 100 µM | K562 > 100 µM | Malme-3M > 100 µM | NCI-H522 > 100 µM | OVCAR-8 > 100 µM | SF-268 > 100 µM | SK-MEL-2 > 100 µM | SK-OV-3 > 100 µM | SN12C > 100 µM | U-251 > 100 µM | UO-31 > 100 µM

CC12OC(=O)C(C#N)C1(C)C1C(=O)CCCC12 (configuration not stated)
inactive: IGROV-1 > 100 µM | K562 > 100 µM | Malme-3M > 100 µM | OVCAR-4 > 100 µM | OVCAR-8 > 100 µM | RXF 393 > 100 µM | SF-268 > 100 µM | SK-MEL-28 > 100 µM | SK-MEL-2 > 100 µM | SK-OV-3 > 100 µM | SN12C > 100 µM | U-251 > 100 µM | UO-31 > 100 µM

COc1ccc(OC)c(/C=C2\CCc3ccccc3C2=O)c1
active: K562 0.391 µM
inactive: IGROV-1 11.4 µM | Malme-3M 3.72 µM | NCI-H522 1.77 µM | OVCAR-4 6.52 µM | OVCAR-8 4.16 µM | RXF 393 1.76 µM | SF-268 4.84 µM | SK-MEL-28 5.12 µM | SK-MEL-2 2.93 µM | SK-OV-3 2.58 µM | SN12C 5.48 µM | U-251 3.3 µM

C/C=C(\C)C(=O)N1c2ccccc2CC1c1c(C)[nH]c2ccccc12 (configuration not stated)
inactive: IGROV-1 39.6 µM | K562 39.6 µM | Malme-3M 32 µM | NCI-H522 42.3 µM | OVCAR-4 4.15 µM | OVCAR-8 83.8 µM | RXF 393 > 100 µM | SK-MEL-28 > 100 µM | SK-MEL-2 19.3 µM | SK-OV-3 > 100 µM | SN12C > 100 µM | U-251 91.6 µM | UO-31 36.1 µM

CN1CCN(C)C12C=CC=CC21CC1
inactive: IGROV-1 > 100 µM | K562 > 100 µM | Malme-3M > 100 µM | NCI-H522 > 100 µM | OVCAR-4 > 100 µM | OVCAR-8 > 100 µM | RXF 393 > 100 µM | SF-268 > 100 µM | SK-MEL-2 > 100 µM | SK-OV-3 > 100 µM | SN12C > 100 µM | U-251 > 100 µM | UO-31 > 100 µM

N/C(=C\c1ccc(OCc2ccccc2)c(OCc2ccccc2)c1[N+](=O)[O-])C(=O)O
inactive: IGROV-1 > 100 µM | K562 > 100 µM | Malme-3M > 100 µM | NCI-H522 > 100 µM | OVCAR-8 > 100 µM | RXF 393 > 100 µM | SF-268 > 100 µM | SK-MEL-28 > 100 µM | SK-MEL-2 > 100 µM | SK-OV-3 > 100 µM | SN12C > 100 µM | U-251 > 100 µM | UO-31 > 100 µM

COc1ccc(/C(Cl)=C/c2cc(OC)ccc2OC)cc1
inactive: IGROV-1 > 100 µM | K562 47 µM | Malme-3M 93.3 µM | NCI-H522 46.9 µM | OVCAR-4 > 100 µM | OVCAR-8 61.9 µM | RXF 393 20.5 µM | SF-268 58.2 µM | SK-MEL-28 79.6 µM | SK-OV-3 99.8 µM | SN12C 56.4 µM | U-251 84.7 µM | UO-31 98.9 µM

COc1cc2c3c(c1OCc1ccccc1)NCCC3NCC2 (configuration not stated)
inactive: IGROV-1 > 100 µM | K562 > 100 µM | Malme-3M > 100 µM | NCI-H522 > 100 µM | OVCAR-4 > 100 µM | OVCAR-8 > 100 µM | RXF 393 98.2 µM | SF-268 > 100 µM | SN12C > 100 µM | U-251 > 100 µM | UO-31 51.6 µM

CCN(CC)c1ccc(C2N3CCCCC3[C@@H]3c4[nH]c5ccccc5c4CCN23)cc1 (some centres not stated)
inactive: IGROV-1 42.8 µM | K562 15.2 µM | Malme-3M 24.2 µM | OVCAR-4 36.5 µM | OVCAR-8 35.3 µM | RXF 393 15.8 µM | SF-268 22.1 µM | SK-MEL-28 25.9 µM | SK-MEL-2 > 10 µM | SK-OV-3 69.7 µM | SN12C 19.7 µM | U-251 29.6 µM | UO-31 27 µM

CCCCN(CCCC)CC(C(=O)Nc1ccc([N+](=O)[O-])cc1[N+](=O)[O-])/C(C)=N\NC(=S)NN (configuration not stated)
inactive: IGROV-1 > 100 µM | K562 40.7 µM | Malme-3M > 100 µM | NCI-H522 25.5 µM | OVCAR-8 > 100 µM | RXF 393 96.2 µM | SF-268 > 100 µM | SK-MEL-28 > 100 µM | SK-MEL-2 > 100 µM | SK-OV-3 > 100 µM | U-251 > 100 µM | UO-31 26.9 µM

COc1cc(C2c3cc4c(cc3[C@@H](NCCN3CCCCC3)C3COC(=O)[C@H]23)OCO4)cc(OC)c1O (some centres not stated)
active: K562 0.615 µM | Malme-3M 0.29 µM | OVCAR-4 0.253 µM | OVCAR-8 0.718 µM | SF-268 0.346 µM | SK-OV-3 0.098 µM | U-251 0.109 µM | UO-31 0.41 µM
inactive: IGROV-1 1.33 µM | SK-MEL-28 2.11 µM | SK-MEL-2 2.07 µM | SN12C 1.91 µM

COC(=O)CC(C(C(=O)OC)C(=O)OC)N1C(=O)OC(c2ccccc2)C1c1ccccc1 (configuration not stated)
inactive: IGROV-1 > 100 µM | K562 > 100 µM | Malme-3M > 100 µM | NCI-H522 69.5 µM | OVCAR-4 > 100 µM | OVCAR-8 > 100 µM | RXF 393 74.5 µM | SF-268 > 100 µM | SK-MEL-28 > 100 µM | SK-MEL-2 > 100 µM | SK-OV-3 > 100 µM | SN12C > 100 µM | U-251 89.5 µM | UO-31 > 100 µM

CC1=C(N(C)C)C(=O)c2nc3n(c2C1=O)CCC3OC(N)=O (configuration not stated)
inactive: IGROV-1 16.8 µM | K562 18.5 µM | Malme-3M 11.2 µM | NCI-H522 15.2 µM | OVCAR-4 19.9 µM | OVCAR-8 16.7 µM | SF-268 20.1 µM | SK-MEL-28 20.2 µM | SK-MEL-2 15.6 µM | SK-OV-3 15.2 µM | SN12C 15.2 µM | U-251 23.2 µM | UO-31 17.3 µM
